This is an account of results in US20110152089A1, “HERBICIDAL COMPOSITIONS COMPRISING FLUFENACET” (Bayer CropScience AG, priority 2009, published 2011).

The test system of one test is LOLPE. Nature of the test: PE application vs pre-sowing application, greenhouse (Table 3). In kind it is in vivo, Lolium perenne. The settings on record: g of AS/ha: (A) 90, (B) 300, (C) 140, (A)+(B)+(C) 90 + 300 + 140. Here is the method: (§1) In the standard design of the test, seeds of various broad-leaved weed and weed grass biotypes (origins) were sown in a 8-13 cm diameter pot filled with natural soil of a standard field soil (loamy silt; non-sterile) and covered with a covering soil layer of about 1 cm. The pots were then cultivated in a greenhouse (12-16 h of light, temperature day 20-22° C., night 15-18° C.) until the time of application. The pots were treated on a laboratory track sprayer with spray liquors comprising the compositions according to the invention, mixtures of the prior art or components used individually. Application of the active compounds or active compound combinations formulated as WG, WP, EC or otherwise was carried out at the appropriate growth stages of the plants. The application rate for the spray application was 100-600 l of water/ha. After the treatment, the plants were returned to the greenhouses.
(§2) About 3 weeks after the application, the soil action or/and foliar action was assessed visually according to a scale of 0-100% in comparison to an untreated comparative group: 0%=no noticeable effect compared to the untreated comparative group; 100%=full effect compared to the untreated comparative group.
(notes: the term “seeds” also includes vegetative propagation forms such as, for example, rhizome pieces; abbreviations used: h light=hours of illumination, g of AS/ha=gram of active substance per hectare, l/ha=liter per hectare, S=sensitive, R=resistant) • 1. Pre-emergence action against weeds: seeds of various broad-leaved weed and weed grass biotypes (origins) were sown in a 8-13 cm diameter pot filled with natural soil of a standard field soil (loamy silt; non-sterile) and covered with a covering soil layer of about 1 cm. The pots were then cultivated in a greenhouse (12-16 h of light, temperature day 20-22° C., night 15-18° C.) until the time of application. The pots were treated at the BBCH stage 00-10 of the seeds/plants on a laboratory track sprayer with spray liquors comprising the compositions according to the invention, mixtures or components used individually, as WG, WP, EC or other formulations. The application rate for the spray application was 100-600 l of water/ha. After the treatment, the plants were returned to the greenhouses and, when required, treated with fertilizer and watered. • 2. Post-emergence action against weeds: seeds of various broad-leaved weed and weed grass biotypes (origins) were sown in a 8-13 cm diameter pot filled with natural soil of a standard field soil (loamy silt; non-sterile) and covered with a covering soil layer of about 1 cm. The pots were then cultivated in a greenhouse (12-16 h of light, temperature day 20-22° C., night 15-18° C.) until the time of application. […]

In a further test the test system is POAAN. Kind of test: PO application, greenhouse (Table 2). The settings on record: g of AS/ha: (A) 120, (B) 1200, (C) 140, (A)+(B)+(C) 120 + 1200 + 140, visual, about 3 weeks after application. In kind it is in vivo, Poa annua. On the procedure:
as §1, §2
(notes: the term “seeds” also includes vegetative propagation forms such as, for example, rhizome pieces; abbreviations used: h light=hours of illumination, g of AS/ha=gram of active substance per hectare, l/ha=liter per hectare, S=sensitive, R=resistant) • 1. Pre-emergence action against weeds: seeds of various broad-leaved weed and weed grass biotypes (origins) were sown in a 8-13 cm diameter pot filled with natural soil of a standard field soil (loamy silt; non-sterile) and covered with a covering soil layer of about 1 cm. The pots were then cultivated in a greenhouse (12-16 h of light, temperature day 20-22° C., night 15-18° C.) until the time of application. […]

The subject of test [1] is HORVS. Nature of the test: Different soil pH, PE application, crop selectivity, greenhouse (Table 8). In kind it is in vivo, Hordeum vulgare, summer barley. To be noted: for activity HORVS pH 7.4 (crop plant): soil pH 7.4, g of AS/ha: (A) 90, (B) 300, (C) 140, (A)+(B)+(C) 90 + 300 + 140; for activity HORVS pH 8.4 (crop plant): soil pH 8.4, g of AS/ha: (A) 90, (B) 300, (C) 140, (A)+(B)+(C) 90 + 300 + 140. Here is the method: as §1, §2
(§3) (notes: the term “seeds” also includes vegetative propagation forms such as, for example, rhizome pieces; abbreviations used: h light=hours of illumination, g of AS/ha=gram of active substance per hectare, l/ha=liter per hectare, S=sensitive, R=resistant) • 1. Pre-emergence action against weeds: seeds of various broad-leaved weed and weed grass biotypes (origins) were sown in a 8-13 cm diameter pot filled with natural soil of a standard field soil (loamy silt; non-sterile) and covered with a covering soil layer of about 1 cm. The pots were then cultivated in a greenhouse (12-16 h of light, temperature day 20-22° C., night 15-18° C.) until the time of application. The pots were treated at the BBCH stage 00-10 of the seeds/plants on a laboratory track sprayer with spray liquors comprising the compositions according to the invention, mixtures or components used individually, as WG, WP, EC or other formulations. The application rate for the spray application was 100-600 l of water/ha. After the treatment, the plants were returned to the greenhouses and, when required, treated with fertilizer and watered. • 2. Post-emergence action against weeds: seeds of various broad-leaved weed and weed grass biotypes (origins) were sown in a 8-13 cm diameter pot filled with natural soil of a standard field soil (loamy silt; non-sterile) and covered with a covering soil layer of about 1 cm. The pots were then cultivated in a greenhouse (12-16 h of light, temperature day 20-22° C., night 15-18° C.) until the time of application. The pots were treated at various BBCH stages between 11-25 of the seeds/plants, i.e. generally between two to three weeks after the start of the cultivation, on a laboratory track sprayer with spray liquors comprising the compositions according to the invention, mixtures or components used individually, as WG, WP, EC or other formulations. The application rate for the spray application was 100-600 l of water/ha. After the treatment, the plants were returned to the greenhouses and, when required, treated with fertilizer and watered. • 3. Pre-emergence action against weeds with and without incorporation of active compound: seeds of various broad-leaved weed and weed grass biotypes (origins) were sown in a 8-13 cm diameter pot filled with natural soil of a standard field soil (loamy silt; non-sterile). […]

The next test has as its system MATCH. Nature of the test: Different sowing depths, PE application, greenhouse (Table 7). In kind it is in vivo, Matricaria chamomilla. To be noted: for activity MATCH 5 mm: sowing depth 5 mm; for activity MATCH 20 mm: sowing depth 20 mm. Here is the method: as §1, §2, §3
Test [2] has as its system HORVS. Nature of the test: Different sowing depths, PE application, crop selectivity, greenhouse (Table 7). In kind it is in vivo, Hordeum vulgare, summer barley. To be noted: for activity HORVS 5 mm (crop plant): sowing depth 5 mm; for activity HORVS 20 mm (crop plant): sowing depth 20 mm. On the procedure: as §1, §2, §3
For test [3], the system named is HORVS. Kind of test: Activity with different soil types, crop selectivity, greenhouse (Table 5). In kind it is in vivo, Hordeum vulgare, summer barley. The settings on record: g of AS/ha: (A) 90, (B) 300, (C) 140, (A)+(B)+(C) 90 + 300 + 140; for activity HORVS IU soil (crop plant): IU soil (loamy silt standard field soil); for activity HORVS IU/EC73 soil (crop plant): IU/EC73 soil (heavy soil, higher organic substance). On the procedure:
as §1, §2, §3

Test [4] has as its system HORVS. Kind of test: PE soil application vs incorporation into the soil, crop selectivity, greenhouse (Table 1). The settings on record: g of AS/ha: (A) 90, (B) 300, (C) 70, (A)+(B)+(C) 90 + 300 + 70, visual, about 3 weeks after application. In kind it is in vivo, Hordeum vulgare, summer barley. On the procedure: as §1, §2, §3
Setting [5] is: application 7 days prior to sowing.
Where [6] appears, read: g of AS/ha: (A) 90, (B) 300, (C) 140, (A)+(B)+(C) 90 + 300 + 140.
Where [7] appears, read: g of AS/ha: (A) 90, (B) 300, (C) 140, (A)+(B)+(C) 90 + 300 + 140, listed as trifluralin.

Structures are written as SMILES.

Take `CSc1nnc(C(C)(C)C)c(=O)n1N` [(C) metribuzin, 4-amino-6-(1,1-dimethyl-ethyl)-3-(methylthio)-1,2,4-triazin-5-(4H)-one]: in the test with LOLPE (PE application), the “activity LOLPE” value amounted to 20%. Also, in the test on LOLPE (setting [5]), the “activity LOLPE” value was found to be 80%. The “activity POAAN” value in the test on POAAN was 79%. Further, in the test on HORVS [1], the “activity HORVS pH 7.4 (crop plant)” value was found to be 40% and the “activity HORVS pH 8.4 (crop plant)” value amounted to 50%. Also, in the test with MATCH (setting [6]), the “activity MATCH 5 mm” value is given as 100% and the “activity MATCH 20 mm” value was 70%. In addition, in the test with HORVS [2] (setting [6]), the “activity HORVS 5 mm (crop plant)” value was 70% and the “activity HORVS 20 mm (crop plant)” value was found to be 30%. In the test with HORVS [3], the “activity HORVS IU soil (crop plant)” value is 0% and the “activity HORVS IU/EC73 soil (crop plant)” value was 0%. Besides, the “activity HORVS (crop plant)” value in the test with HORVS [4] (PE application) was 30%. Also, the “activity HORVS (crop plant)” value with HORVS [4] (incorporation into the soil) is given as 70%.
Regarding `CCCN(CCC)c1c([N+](=O)[O-])cc(C(F)(F)F)cc1[N+](=O)[O-]` [(B) trifluralin, 2,6-dinitro-N,N-dipropyl-4-(trifluoromethyl)benzenamine], in the test with LOLPE (PE application), the “activity LOLPE” value came out at 90%. Further, in the test with LOLPE (setting [5]), the “activity LOLPE” value is given as 0%. Further, the “activity POAAN” value in the test on POAAN was found to be 40%. Further, in the test on HORVS [1], the “activity HORVS pH 7.4 (crop plant)” value was found to be 20% and the “activity HORVS pH 8.4 (crop plant)” value is recorded as 10%. In the test with MATCH (setting [6]), the “activity MATCH 5 mm” value stood at 0% and the “activity MATCH 20 mm” value is reported as 30%. For the same molecule, in the test on MATCH (setting [7]), the “activity MATCH 5 mm” value is 100% and the “activity MATCH 20 mm” value is reported as 70%. Also, in the test with HORVS [2] (setting [6]), the “activity HORVS 5 mm (crop plant)” value is on record as 25% and the “activity HORVS 20 mm (crop plant)” value came to 20%. In the test with HORVS [2] (setting [7]), the “activity HORVS 5 mm (crop plant)” value is 70% and the “activity HORVS 20 mm (crop plant)” value came to 30%. Moreover, in the test with HORVS [3], the “activity HORVS IU soil (crop plant)” value was determined as 0% and the “activity HORVS IU/EC73 soil (crop plant)” value came to 0%. Further, the “activity HORVS (crop plant)” value in the test with HORVS [4] (PE application) is 0%. Besides, in the test on HORVS [4] (incorporation into the soil), the “activity HORVS (crop plant)” value is 35%.
